Laboratory results taken from patent US3991053A.
In brackets after ≈: the same amount, converted by molar mass.

Experiments:
Salmonella choleraesuis [1] = assay: In vivo protection of mice infected intraperitoneally with Salmonella choleraesuis; conditions: multiple dosing, 25 mg./kg., percentage of animals which survive; for Percentage protection Sal. choleraesuis SC: subcutaneous (SC)
Protocol: (§1) In determining the in vivo activity of the compounds of the invention, the test compound is administered to mice which have been infected by intraperitoneal injection of a lethal inoculum of pathogenic bacteria. The test compound is administered using a multiple dosing regimen, using either the oral (PO) or the subcutaneous (SC) route. The inoculum of bacteria varies from one to about ten times the amount needed to kill 100% of the mice, under the conditions of the test. At the end of the test, the activity of a compound is assessed by counting the number of survivors among the treated animals, and expressing the activity of a compound as the percentage of animals which survive. In Table I, in vivo activities of several of the compounds of this invention against Salmonella choleraesuis and Pasteurella multocida are presented. | *The dosage of test compound in the protection studies using Salmonnella | choleraesuis was 25 mg./kg. of body weight, and using Pasteurella | multocida it was 50 mg./kg. of body weight.

Salmonella choleraesuis [2] = assay: In vitro MIC, two-fold serial dilution in Brain-Heart Infusion Broth, Salmonella choleraesuis; conditions: Salmonella enterica, read-out: MIC (minimum inhibitory concentration) Sal. choleraesuis
Pasteurella multocida [3] = assay: In vitro MIC, two-fold serial dilution in Brain-Heart Infusion Broth, Pasteurella multocida; conditions: read-out: MIC (minimum inhibitory concentration) Past. multocida
Escherichia coli = assay: In vitro MIC, two-fold serial dilution in Brain-Heart Infusion Broth, Escherichia coli; conditions: read-out: MIC (minimum inhibitory concentration) Esch. coli
Streptococcus pyogenes = assay: In vitro MIC, two-fold serial dilution in Brain-Heart Infusion Broth, Streptococcus pyogenes; conditions: read-out: MIC (minimum inhibitory concentration) Strep. pyogenes
Pasteurella multocida [4] = assay: In vivo protection of mice infected intraperitoneally with Pasteurella multocida; conditions: multiple dosing, 50 mg./kg., percentage of animals which survive; for Percentage protection Past. multocida SC: subcutaneous (SC)
Protocol: as §1

Treponema hyodysenteriae = assay: In vitro MIC, two-fold serial dilution in Brain-Heart Infusion Broth, Treponema hyodysenteriae; conditions: Brachyspira hyodysenteriae, read-out: MIC (minimum inhibitory concentration) Trep. hyodysenteriae

Row | SMILES | Percentage protection Sal. choleraesuis PO (Salmonella choleraesuis [1]) [%] | Percentage protection Sal. choleraesuis SC (Salmonella choleraesuis [1]) [%] | MIC (Salmonella choleraesuis [2]) [mg/L] | MIC (Pasteurella multocida [3]) [mg/L] | MIC (Escherichia coli) [mg/L] | MIC (Streptococcus pyogenes) [mg/L] | Percentage protection Past. multocida PO (Pasteurella multocida [4]) [%] | Percentage protection Past. multocida SC (Pasteurella multocida [4]) [%] | MIC (Treponema hyodysenteriae) [mg/L]
1 | CC1(OCc2ccccc2)OCc2c1[n+]([O-])c1ccccc1[n+]2[O-] (centres unmarked) [1-Benzyloxy-1-methyl-1,3-dihydrofuro[3,4-b]quinoxaline 4,9-Dioxide] | 40 | 60 | 12.5 (≈ 38.5 µM) | 3.12 (≈ 9.62 µM) | 12.5 (≈ 38.5 µM) | 6.25 (≈ 19.3 µM) | – | – | –
2 | CCOC1(C)OCc2c1[n+]([O-])c1ccccc1[n+]2[O-] (centres unmarked) [1-Ethoxy-1-methyl-1,3-dihydrofuro[3,4-b]quinoxaline 4,9-Dioxide] | 70 | 50 | 12.5 (≈ 47.7 µM) | 12.5 (≈ 47.7 µM) | 12.5 (≈ 47.7 µM) | 3.12 (≈ 11.9 µM) | – | – | –
3 | CC1(O)OCc2c1[n+]([O-])c1ccccc1[n+]2[O-] (centres unmarked) [1-Hydroxy-1-methyl-1,3-dihydrofuro[3,4-b]quinoxaline 4,9-dioxide] | 100 | 100 | 1.56 (≈ 6.66 µM) | 12.5 (≈ 53.4 µM) | 1.56 (≈ 6.66 µM) | 0.78 (≈ 3.33 µM) | 100 | 100 | 0.09 (≈ 0.384 µM)
4 | COC1(C)OCc2c1[n+]([O-])c1ccccc1[n+]2[O-] (centres unmarked) [1-Methoxy-1-methyl-1,3-dihydrofuro[3,4-b]quinoxaline 4,9-Dioxide] | 100 | 100 | 1.56 (≈ 6.28 µM) | 3.12 (≈ 12.6 µM) | 3.12 (≈ 12.6 µM) | 0.78 (≈ 3.14 µM) | 90 | 100 | –
